Data reported in ChEMBL document CHEMBL1201862, “PubChem BioAssay data set” (2004).
Active and inactive are the calls of the source.

Key:
Fatty acid synthase = Fatty acid synthase (Homo sapiens, UniProt P49327); test: FAS thioesterase domain inhibitors, dose response, biochemical, kinetic fluorescence intensity (AID 624326); type: functional;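 also: rate of fluorescence rise from hydrolysis of a fluorogenic O-methyl fluorescein ester substrate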
[1] = biological target: Voltage-dependent T-type calcium channel subunit alpha-1H (Homo sapiens, UniProt O95180); type: functional;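 also: channel activity triggered by adding a high calcium stimulation buffer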
Voltage-dependent T-type calcium channel subunit alpha-1H, sequence (O95180 whole entry): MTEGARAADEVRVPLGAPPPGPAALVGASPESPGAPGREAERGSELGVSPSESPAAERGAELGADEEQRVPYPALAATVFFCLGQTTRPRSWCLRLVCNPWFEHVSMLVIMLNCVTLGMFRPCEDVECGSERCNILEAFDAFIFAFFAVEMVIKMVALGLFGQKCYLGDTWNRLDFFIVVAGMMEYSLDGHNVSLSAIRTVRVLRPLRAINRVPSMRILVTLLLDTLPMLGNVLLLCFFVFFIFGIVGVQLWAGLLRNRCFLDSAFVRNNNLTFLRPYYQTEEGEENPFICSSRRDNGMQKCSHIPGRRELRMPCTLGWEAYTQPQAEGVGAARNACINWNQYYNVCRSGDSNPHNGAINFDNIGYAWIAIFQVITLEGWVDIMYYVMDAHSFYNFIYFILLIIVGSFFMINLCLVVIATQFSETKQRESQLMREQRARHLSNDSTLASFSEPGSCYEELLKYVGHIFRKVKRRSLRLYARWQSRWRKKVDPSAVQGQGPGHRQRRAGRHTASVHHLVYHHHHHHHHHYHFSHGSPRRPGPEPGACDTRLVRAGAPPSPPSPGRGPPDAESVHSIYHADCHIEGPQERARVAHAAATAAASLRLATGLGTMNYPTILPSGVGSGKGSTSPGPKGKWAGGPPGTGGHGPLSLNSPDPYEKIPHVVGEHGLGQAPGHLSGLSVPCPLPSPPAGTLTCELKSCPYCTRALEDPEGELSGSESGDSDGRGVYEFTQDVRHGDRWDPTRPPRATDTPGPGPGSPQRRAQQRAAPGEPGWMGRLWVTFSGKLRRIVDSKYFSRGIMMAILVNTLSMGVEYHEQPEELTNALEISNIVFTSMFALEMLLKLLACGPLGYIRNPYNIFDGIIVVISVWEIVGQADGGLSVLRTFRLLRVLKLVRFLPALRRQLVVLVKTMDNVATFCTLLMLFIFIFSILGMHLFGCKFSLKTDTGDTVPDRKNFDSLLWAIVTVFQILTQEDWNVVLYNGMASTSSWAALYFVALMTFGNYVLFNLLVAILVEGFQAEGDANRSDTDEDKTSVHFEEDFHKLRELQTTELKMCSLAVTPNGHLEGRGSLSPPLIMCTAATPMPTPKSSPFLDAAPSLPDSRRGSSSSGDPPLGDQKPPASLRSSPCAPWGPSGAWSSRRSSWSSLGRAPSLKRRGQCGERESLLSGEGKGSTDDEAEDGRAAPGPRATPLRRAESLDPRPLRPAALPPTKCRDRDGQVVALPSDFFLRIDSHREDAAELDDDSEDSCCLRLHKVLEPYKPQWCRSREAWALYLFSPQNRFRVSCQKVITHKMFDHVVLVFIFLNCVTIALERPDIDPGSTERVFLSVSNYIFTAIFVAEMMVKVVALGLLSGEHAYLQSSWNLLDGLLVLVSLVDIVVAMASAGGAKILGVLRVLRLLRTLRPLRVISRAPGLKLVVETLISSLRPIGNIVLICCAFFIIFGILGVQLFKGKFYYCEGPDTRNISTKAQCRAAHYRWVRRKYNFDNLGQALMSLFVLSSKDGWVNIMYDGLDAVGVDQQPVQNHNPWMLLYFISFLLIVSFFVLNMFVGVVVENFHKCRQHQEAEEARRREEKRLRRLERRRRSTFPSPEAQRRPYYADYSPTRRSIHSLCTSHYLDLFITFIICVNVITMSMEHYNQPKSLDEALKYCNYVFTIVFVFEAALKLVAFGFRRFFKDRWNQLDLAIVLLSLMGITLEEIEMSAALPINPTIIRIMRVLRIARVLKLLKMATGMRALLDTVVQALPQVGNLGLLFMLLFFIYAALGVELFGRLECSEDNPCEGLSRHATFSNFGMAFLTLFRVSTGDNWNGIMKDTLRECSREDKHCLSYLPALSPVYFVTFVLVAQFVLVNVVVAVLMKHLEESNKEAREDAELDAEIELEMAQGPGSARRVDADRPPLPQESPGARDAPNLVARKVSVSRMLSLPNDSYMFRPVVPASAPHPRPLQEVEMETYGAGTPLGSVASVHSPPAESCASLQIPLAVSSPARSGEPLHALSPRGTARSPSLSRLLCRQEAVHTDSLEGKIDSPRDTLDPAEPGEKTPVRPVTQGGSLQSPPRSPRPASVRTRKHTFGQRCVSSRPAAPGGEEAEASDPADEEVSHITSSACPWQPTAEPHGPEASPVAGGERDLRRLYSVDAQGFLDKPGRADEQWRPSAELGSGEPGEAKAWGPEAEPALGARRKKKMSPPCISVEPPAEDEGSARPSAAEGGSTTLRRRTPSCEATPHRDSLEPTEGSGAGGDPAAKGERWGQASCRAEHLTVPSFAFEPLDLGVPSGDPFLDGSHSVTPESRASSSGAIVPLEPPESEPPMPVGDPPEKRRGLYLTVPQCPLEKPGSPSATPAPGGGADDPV

[2] = Luminescence Cell-Based Dose Retest to Confirm Inhibitors of Cancer Stem Cells. [Related pubchem assays (depositor defined):AID2717, AID2721]; type: functional; settings: Homo sapiens
[3] = biological target: T1, Ubiquitin-conjugating enzyme E2 N (Homo sapiens, UniProt P61088); type: functional;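 also: Dose-response confirmation in a TR-FRET assay detecting UBC13-driven polyubiquitin chain formation, inhibition measured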
T1 sequence (P61088 whole entry): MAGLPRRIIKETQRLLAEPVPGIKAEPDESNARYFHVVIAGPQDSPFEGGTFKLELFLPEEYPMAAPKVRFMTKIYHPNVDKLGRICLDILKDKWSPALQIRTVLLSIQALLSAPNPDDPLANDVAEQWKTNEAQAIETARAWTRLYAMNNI

Protein skinhead-1 = biological target: T2, Protein skinhead-1 (Caenorhabditis elegans, UniProt P34707); type: functional
T2 sequence (P34707 whole entry): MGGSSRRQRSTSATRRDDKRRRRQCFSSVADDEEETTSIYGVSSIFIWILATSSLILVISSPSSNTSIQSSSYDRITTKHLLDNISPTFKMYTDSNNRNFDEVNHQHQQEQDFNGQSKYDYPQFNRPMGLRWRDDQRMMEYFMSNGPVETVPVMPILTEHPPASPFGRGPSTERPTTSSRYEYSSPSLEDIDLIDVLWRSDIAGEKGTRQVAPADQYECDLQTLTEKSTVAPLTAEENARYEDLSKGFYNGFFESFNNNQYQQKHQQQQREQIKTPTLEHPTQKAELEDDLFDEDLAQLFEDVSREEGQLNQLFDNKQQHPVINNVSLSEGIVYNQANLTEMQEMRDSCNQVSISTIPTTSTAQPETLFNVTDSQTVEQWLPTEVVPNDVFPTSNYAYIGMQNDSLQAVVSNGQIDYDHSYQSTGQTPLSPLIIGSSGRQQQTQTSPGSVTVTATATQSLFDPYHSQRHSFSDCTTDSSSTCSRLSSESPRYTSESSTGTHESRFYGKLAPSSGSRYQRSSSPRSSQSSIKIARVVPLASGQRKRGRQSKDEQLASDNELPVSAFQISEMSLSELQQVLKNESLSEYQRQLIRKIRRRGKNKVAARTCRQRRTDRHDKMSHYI

[4] = biological target: T3, Adenosylmethionine-8-amino-7-oxononanoate aminotransferase (Mycobacterium tuberculosis, UniProt P9WQ81); test: Mycobacterium tuberculosis BioA enzyme inhibitor Measured in Biochemical System Using Plate Reader - 2163-02_Inhibitor_Dose_CherryPick_Activity.; type: functional, Mycobacterium tuberculosis UT205
T3 sequence (P9WQ81 whole entry): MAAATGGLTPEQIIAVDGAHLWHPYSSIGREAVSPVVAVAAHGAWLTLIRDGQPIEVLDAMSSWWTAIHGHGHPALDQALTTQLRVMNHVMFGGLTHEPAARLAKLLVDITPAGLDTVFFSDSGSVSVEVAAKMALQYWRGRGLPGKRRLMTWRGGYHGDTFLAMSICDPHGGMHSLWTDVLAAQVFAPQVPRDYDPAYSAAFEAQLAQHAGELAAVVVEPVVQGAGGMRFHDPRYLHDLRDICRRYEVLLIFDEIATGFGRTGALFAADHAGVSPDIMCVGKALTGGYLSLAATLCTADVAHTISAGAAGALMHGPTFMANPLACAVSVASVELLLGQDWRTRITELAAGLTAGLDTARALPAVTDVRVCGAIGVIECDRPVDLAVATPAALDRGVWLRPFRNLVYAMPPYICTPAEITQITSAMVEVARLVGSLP

[5] = intracellular Trypanosoma cruzi inhibitors in host cells – cell-based, plate reader, cherry-pick samples, set 3, dose response (AID 651818); type: functional;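 also: compounds incubated with infected cells for about four days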
BJ [6] = test: cytotoxicity toward BJ-TERT fibroblasts, dose response, cell-based, RAS-independent, luminescence (AID 1933); type: functional; settings: Homo sapiens
BJ [7] = test: cells; type: functional, cell-based; settings: Homo sapiens
BJ [8] = test: cytotoxicity toward BJ-TERT-LT-ST fibroblasts, dose response, cell-based, RAS-independent, luminescence (AID 1935); type: functional; settings: Homo sapiens;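 also: BJ fibroblasts immortalized with TERT plus LT and ST oncogenes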
[9] = cytotoxicity toward DRD oncogenic fibroblasts, dose response, cell-based, non-viral oncogenic, luminescence (AID 1934); type: functional; settings: Homo sapiens
[10] = inhibitors of HIV Env-driven cell fusion, dose response, cherry-pick (AID 652057); type: functional, cell-based
[11] = ZM109 Env clade C HIV-1 fusion inhibitors, dose response, HeLa effector, CEM target cells, luciferase, cherry-pick (AID 652058); type: functional, cell-based
[12] = off-target signal loss in HeLa-CEM21 co-culture – HeLa F-luc CTL cells, cherry-picked, counter-screen for HIV-1 Env fusion inhibitor project, dose response (AID 652040); type: functional, cell-based;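 also: potency for signal decrease marking cytotoxic or nonspecific inhibition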
[13] = inhibitors of clade B AD8 Env fusion, dose response, cell-based, cherry-pick (AID 652062); type: functional;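 also: luciferase signal from cell-cell fusion driven by HIV-1 clade B AD8 Env; potency is for inhibitors of fusion seen as a drop in luminescence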

Fatty acid synthase, sequence (P49327 whole entry, the tested form may be a part): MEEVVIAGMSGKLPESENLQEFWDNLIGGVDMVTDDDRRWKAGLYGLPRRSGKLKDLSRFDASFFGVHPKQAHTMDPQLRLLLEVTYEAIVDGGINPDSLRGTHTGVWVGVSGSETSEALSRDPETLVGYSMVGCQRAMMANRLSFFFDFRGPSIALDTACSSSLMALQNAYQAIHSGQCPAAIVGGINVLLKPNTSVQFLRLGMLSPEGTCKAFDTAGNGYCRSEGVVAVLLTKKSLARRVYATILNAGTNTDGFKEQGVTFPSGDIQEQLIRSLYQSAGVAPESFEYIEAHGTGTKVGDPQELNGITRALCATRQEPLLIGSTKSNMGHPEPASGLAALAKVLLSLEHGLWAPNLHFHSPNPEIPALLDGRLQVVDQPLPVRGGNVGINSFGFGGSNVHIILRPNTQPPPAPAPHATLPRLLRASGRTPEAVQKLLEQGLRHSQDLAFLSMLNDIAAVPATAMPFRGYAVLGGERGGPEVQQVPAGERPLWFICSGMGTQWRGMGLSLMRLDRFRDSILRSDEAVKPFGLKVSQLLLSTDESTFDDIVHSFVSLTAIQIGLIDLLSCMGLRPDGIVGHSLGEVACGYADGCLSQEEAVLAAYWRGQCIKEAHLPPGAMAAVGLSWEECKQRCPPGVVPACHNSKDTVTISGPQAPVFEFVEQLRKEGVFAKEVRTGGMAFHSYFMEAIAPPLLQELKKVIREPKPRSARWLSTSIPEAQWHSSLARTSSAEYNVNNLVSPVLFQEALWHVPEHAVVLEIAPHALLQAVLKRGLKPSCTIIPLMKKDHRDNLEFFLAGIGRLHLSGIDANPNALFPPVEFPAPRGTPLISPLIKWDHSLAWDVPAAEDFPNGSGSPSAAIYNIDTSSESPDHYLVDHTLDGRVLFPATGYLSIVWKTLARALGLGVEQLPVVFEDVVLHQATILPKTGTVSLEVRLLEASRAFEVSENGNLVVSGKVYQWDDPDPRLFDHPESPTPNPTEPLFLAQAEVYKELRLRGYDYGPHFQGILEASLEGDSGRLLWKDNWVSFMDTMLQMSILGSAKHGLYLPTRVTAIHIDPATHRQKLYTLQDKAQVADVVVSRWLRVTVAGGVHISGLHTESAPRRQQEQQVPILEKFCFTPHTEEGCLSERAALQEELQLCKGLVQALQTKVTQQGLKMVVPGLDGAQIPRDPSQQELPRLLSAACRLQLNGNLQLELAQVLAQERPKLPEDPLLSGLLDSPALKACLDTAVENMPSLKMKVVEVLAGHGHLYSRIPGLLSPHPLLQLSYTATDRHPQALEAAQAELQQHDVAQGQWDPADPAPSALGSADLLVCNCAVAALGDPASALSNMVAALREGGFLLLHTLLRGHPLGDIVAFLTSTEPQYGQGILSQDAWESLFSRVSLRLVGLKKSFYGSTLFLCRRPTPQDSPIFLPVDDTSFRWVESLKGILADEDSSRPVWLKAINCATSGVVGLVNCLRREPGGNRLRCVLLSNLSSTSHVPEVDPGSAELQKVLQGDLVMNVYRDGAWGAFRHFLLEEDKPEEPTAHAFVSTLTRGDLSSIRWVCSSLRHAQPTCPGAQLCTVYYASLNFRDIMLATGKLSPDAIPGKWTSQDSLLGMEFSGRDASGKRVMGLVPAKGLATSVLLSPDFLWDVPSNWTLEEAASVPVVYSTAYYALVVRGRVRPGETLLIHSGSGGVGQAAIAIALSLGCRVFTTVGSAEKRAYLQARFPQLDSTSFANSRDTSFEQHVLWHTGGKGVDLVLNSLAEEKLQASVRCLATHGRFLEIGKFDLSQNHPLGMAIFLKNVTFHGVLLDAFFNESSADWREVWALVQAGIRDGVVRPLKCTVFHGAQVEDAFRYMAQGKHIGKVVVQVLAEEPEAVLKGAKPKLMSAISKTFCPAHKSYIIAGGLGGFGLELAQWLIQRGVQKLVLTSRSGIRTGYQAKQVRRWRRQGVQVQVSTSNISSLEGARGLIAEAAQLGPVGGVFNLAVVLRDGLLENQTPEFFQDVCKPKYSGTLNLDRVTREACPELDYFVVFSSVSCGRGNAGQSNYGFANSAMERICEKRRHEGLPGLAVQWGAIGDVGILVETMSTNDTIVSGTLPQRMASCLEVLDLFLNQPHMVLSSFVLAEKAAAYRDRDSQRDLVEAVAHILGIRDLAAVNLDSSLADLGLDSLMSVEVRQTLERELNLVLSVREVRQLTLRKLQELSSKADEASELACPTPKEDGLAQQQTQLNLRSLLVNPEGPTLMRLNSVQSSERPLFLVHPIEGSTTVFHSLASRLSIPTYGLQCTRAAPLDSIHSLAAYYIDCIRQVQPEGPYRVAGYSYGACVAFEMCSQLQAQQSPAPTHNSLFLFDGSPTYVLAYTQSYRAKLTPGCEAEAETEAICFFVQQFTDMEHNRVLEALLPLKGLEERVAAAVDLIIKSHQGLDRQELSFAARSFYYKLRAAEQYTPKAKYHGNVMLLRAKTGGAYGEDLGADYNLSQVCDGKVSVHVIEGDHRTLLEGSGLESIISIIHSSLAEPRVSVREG

NC(=NOC(=O)CCCc1ccccc1)c1cccc([N+](=O)[O-])c1
IC50 (Fatty acid synthase): 11.6 µM (active)

O=C(Nc1cccc(F)c1)C1CCN(c2nnnn2-c2ccccc2)CC1
EC50 [1]: 53.6 µM (active)

COc1cc(OC)cc(-c2sc3ccc(OC)cc3c2C#CC2(N)CCCCC2)c1
AC50 [2]: 2.96 µM (active)
IC50 [3]: > 20 µM (inactive)

O=C(CSc1ccc(Cl)cc1)N1CCN(c2ncc(C(F)(F)F)cc2Cl)CC1
EC50 [1]: 5.86 µM (active)
IC50 (Protein skinhead-1): > 100 µM (inactive)

Cc1nc2sc(C(c3ccc(Cl)cc3)N3CCN(c4ccccc4F)CC3)c(O)n2n1 (stereo unspecified)
AC50 [4]: 1.69 µM (active)

CCN(Cc1ccccc1)C(=O)CCc1nc(-c2ccc(C)cc2)no1
EC50 [1]: 4.8 µM (active)

O=C(CSc1ncn(-c2ccccc2)n1)Nc1ccc(Br)cn1
EC50 [1]: 5.67 µM (active)

CCOc1ccc(N(C(=O)c2snc(C(N)=O)c2N)C(C(=O)NCC2CCCO2)c2ccc(C)o2)cc1 (stereo unspecified)
IC50 [3]: > 20 µM (inactive)

COc1ccc(NC(=O)Nc2ccc3c(c2)CC(=O)N([C@@H](C)CO)C[C@H](C)[C@@H](CN(C)Cc2ccc(C(F)(F)F)cc2)O3)cc1
AC50 [5]: 5.55 µM (active)

C[C@@H]1CN([C@@H](C)CO)C(=O)Cc2cc(NC(=O)Nc3ccccc3)ccc2O[C@@H]1CN(C)Cc1ccc(C(=O)Nc2ccccc2N)cc1
AC50 [5]: 2.04 µM (active)

NC(=S)N=Nc1c(O)n(CCCl)c2ccc(Br)cc12
IC50 [3]: > 20 µM (inactive)

CCOc1cc(C2C(C#N)=C(N)OC(C)=C2C(C)=O)c(Br)c(Br)c1OC(C)C (stereo unspecified)
EC50 (BJ [6]): 2.17 µM (active)
EC50 (BJ [7]): 14 µM (inconclusive)
EC50 (BJ [8]): 2.72 µM (inconclusive)
EC50 [9]: 3.46 µM (active)

CCOC(=O)c1c(CSc2ccsc2)n(C)c2cc(Br)c(O)c(CN(C)C)c12
AC50 [10]: 1.3 µM (active)
AC50 [11]: 2.34 µM (active)
AC50 [12]: 2.45 µM (active)
AC50 [13]: 4.04 µM (active)
